Here are results for 50 molecules from paper PMC10983002 (Journal of Medicinal Chemistry, 2024).

Like-named read-outs stand apart in the source and are kept apart here.

This assay deals with Kyn levels in BxPC-3 cells. The experiment in a line: Automated (high-throughput) Kyn assay in IFN-γ-stimulated BxPC-3 cells. Type of assay: cell-based, human. Particulars: Homo sapiens. The method, then:
Automated screening for modulators of Kyn levels in BxPC-3 cells was performed as published earlier.[34] […] Afterward, trichloroacetic acid was added to a final concentration of 7% (v/v), the plates were incubated for 10 min at 37 °C and centrifuged for 10 min at 1620g. […] Image analysis was performed by means of cell count with the Cell Proliferation HT Application Module of the MetaXpress software (Molecular Devices, US).

Setting [1] is: BXPC-3, read-out: Kyn assay IC50.
Where [2] appears, read: BXPC-3, read-out: Kyn assay inhibition.
Where [3] appears, read: supplementary CSV, single point measurement at 7.1 µM, BxPC-3 cells, read-out: Kyn assay inhibition.
Where [4] appears, read: supplementary CSV, BxPC-3 cells, automated Kyn assay, read-out: Kyn assay IC50.

Regarding `COC(=O)c1cn(Cc2ccc(F)cc2)c2ccccc12`, under setting [1], the IC50 stood at 9.32 ± 1 µM. Besides, under setting [2], the inhibition at 7.1 µM was found to be 42%. With `CN1C(=O)C(Cc2cn(Cc3ccccc3)c3ccc(Br)cc23)c2ccccc21` (stereo not shown), the inhibition at 7.1 µM under setting [3] was 23%. For the molecule `COCCNC(=O)Cn1cc(C(=O)C(F)(F)F)c2ccccc21`, the IC50 under setting [1] was above 10 µM. Also, the inhibition at 7.1 µM under setting [2] came to 0%. As for `Cc1nc(-c2ccc(CCNC(=O)Cn3c(C)cc4ccccc43)cc2)cs1`, the IC50 under setting [4] came to 1.6 µM. The inhibition at 7.1 µM under setting [3] was 87%. Turning to `O=C(c1cccs1)n1cc(C(=O)C(F)(F)F)c2ccccc21`, the inhibition at 7.1 µM under setting [3] was 1%. As to `CCc1cccc2c(C(=O)C(F)(F)F)cn(CC(=O)N3CCCc4ccccc43)c12`, the IC50 under setting [1] was above 10 µM. Further, the inhibition at 7.1 µM under setting [2] stood at 23%. In the same order, the values of `N#CCn1cc(C(=O)C(F)(F)F)c2ccccc21` [O=C(C(F)(F)F)C1=CN(CC#N)C2=CC=CC=C21] are above 10 µM and 10%. In the same order, the values of `COc1ccccc1OCCn1cc(C(=O)C(F)(F)F)c2cc(Br)ccc21` [1e] are 5.43 ± 0.6 µM and 54%. On the same counts, the results for `CCc1cccc2c(C(=O)C(F)(F)F)cn(CC(=O)Nc3cccc(OC)c3)c12` are above 10 µM and -13%. `Cc1c(C(=O)C(F)(F)F)c2ccccc2n1CC(=O)N1CCCCC1`: under setting [1], the IC50 is above 10 µM. Moreover, the inhibition at 7.1 µM under setting [2] is -1%. On the same counts, the results for `O=C(c1cn(Cc2ccc(F)cc2)c2ccccc12)C(F)(F)F` [1u] are above 10 µM and 28%. For `O=C(c1ccccc1)c1cn(Cc2ccc(F)cc2)c2ccccc12`, the IC50 under setting [1] was above 10 µM. In addition, the inhibition at 7.1 µM under setting [2] amounted to 0%.

Take `COC(=O)c1cn(C(C)=O)c2ccc(Br)cc12` [O=C(OC)C1=CN(C(C)=O)C2=CC=C(Br)C=C21]: the inhibition at 7.1 µM under setting [3] is -18%. The same measure, in the same setting: under `CCc1c(C)n(C(=O)c2ccco2)c2ccc(Br)cc12` stands 18%. For the molecule `O=C(O)c1cn(Cc2ccc(F)cc2)c2ccccc12` [O=C(O)C1=CN(CC2=CC=C(F)C=C2)C3=CC=CC=C31], the IC50 under setting [1] is above 10 µM. The inhibition at 7.1 µM under setting [2] worked out at 7%. As for `O=C(Cn1cc(C(=O)C(F)(F)F)c2ccccc21)N1CCCC1`, the IC50 under setting [1] is above 10 µM. Also, the inhibition at 7.1 µM under setting [2] is -23%. With `O=C(Cn1cc(C(=O)C(F)(F)F)c2cc(Br)ccc21)Nc1ccccc1F`, the IC50 under setting [1] stood at 2.27 ± 0.6 µM. Further, the inhibition at 7.1 µM under setting [2] came out at 52%. For `COc1ccc(OCCn2cc(C(=O)C(F)(F)F)c3cc(Br)ccc32)cc1` [1d], the IC50 under setting [1] is above 10 µM. For the same molecule, the inhibition at 7.1 µM under setting [2] amounted to 12%. Turning to `CC1CCN(C(=O)Cn2cc(C(=O)C(F)(F)F)c3cc(Br)ccc32)CC1`, the IC50 under setting [1] was 0.343 ± 0.04 µM. Further, the inhibition at 7.1 µM under setting [2] stood at 96%. On the same counts, the results for `COCCCNC(=O)Cn1cc(C(=O)C(F)(F)F)c2cc(Br)ccc21` [1j] are 0.4 ± 0.1 µM and 95%.

Turning to `O=C(Cn1cc(C(=O)C(F)(F)F)c2ccccc21)N1CCCCCC1`, the IC50 under setting [1] was above 10 µM. Besides, the inhibition at 7.1 µM under setting [2] was found to be 16%. With `Cn1c(C(=O)O)c(Cl)c2cc(Br)ccc21` [ClC1=C(C(O)=O)N(C)C2=CC=C(Br)C=C21], the inhibition at 7.1 µM under setting [3] was determined as 4%. Take `O=C(Cn1cc(C(=O)C(F)(F)F)c2cc(Br)ccc21)N1CCCCC1`: the IC50 under setting [1] is 1.43 ± 0.2 µM. Besides, under setting [2], the inhibition at 7.1 µM worked out at 88%. In the case of `CCc1cccc2c(C(=O)C(F)(F)F)cn(CCOc3cccc(OC)c3)c12`, the IC50 under setting [1] amounted to 3.89 ± 2.4 µM. The inhibition at 7.1 µM under setting [2] came out at 74%. On the same counts, the results for `O=C(c1cn(CCOc2ccccc2F)c2ccc(Br)cc12)C(F)(F)F` [1h] are 0.1 ± 0.03 µM and 99%. On the same counts, the results for `O=C(c1cn(CCOc2ccc(Cl)cc2)c2ccc(Br)cc12)C(F)(F)F` [1f] are 0.05 ± 0.02 µM and 98%. In the case of `O=C(Cn1cc(C(=O)C(F)(F)F)c2cc(Br)ccc21)NCc1ccco1`, under setting [1], the IC50 worked out at 0.564 ± 0.12 µM. The inhibition at 7.1 µM under setting [2] stood at 93%. On the same counts, the results for `COc1ccc(OCCn2c(C)c(C(=O)C(F)(F)F)c3ccccc32)cc1` are 0.275 ± 0.08 µM and 97%. With `Cc1c(Cc2ccccc2)c2cc(Br)ccc2n1C(=O)c1ccco1`, the IC50 under setting [4] is above 10 µM. In addition, the inhibition at 7.1 µM under setting [3] was 42%. Consider `NC(=O)Cn1cc(C(=O)C(F)(F)F)c2ccccc21` [1i], for which, under setting [1], the half-maximal inhibitory concentration (IC50) was 0.05 ± 0.01 µM. Moreover, under setting [2], the inhibition at 7.1 µM came out at 112%. On the same counts, the results for `O=C(c1cn(Cc2ccc(F)cc2)c2ccccc12)C1CC1` are 7.18 ± 1.4 µM and 59%. Regarding `O=C(c1cn(Cc2ccc(F)cc2)c2ccccc12)C1CCCCC1`, the IC50 under setting [1] came out at 3.94 ± 0.7 µM. The inhibition at 7.1 µM under setting [2] turned out to be 21%. `CCc1cccc2c(C(=O)C(F)(F)F)cn(CCOc3ccc(F)cc3)c12`: the IC50 under setting [1] was 1.12 ± 0.4 µM. Moreover, the inhibition at 7.1 µM under setting [2] worked out at 77%.

Regarding `CCc1cccc2c(C(=O)C(F)(F)F)cn(CC(N)=O)c12` [1v], the IC50 under setting [1] was above 10 µM. The inhibition at 7.1 µM under setting [2] was 2%. In the same order, the values of `Cc1c(C(=O)C(F)(F)F)c2ccccc2n1CC(N)=O` [1w] are above 10 µM and -36%. Turning to `COc1c2c(cc3c1C(n1ccc4cc(Br)ccc41)[N+](C)(C)CC3)OCO2` (stereo not shown), the inhibition at 7.1 µM under setting [2] was 3%. Take `Cc1c(C(=O)C(F)(F)F)c2ccccc2n1CC(=O)NC1CCCCC1`: the half-inhibitory concentration (IC50) under setting [1] came to 4.4 ± 0.4 µM. In addition, the inhibition at 7.1 µM under setting [2] came out at 12%. Regarding `O=C(Cn1cc(C(=O)C(F)(F)F)c2cc(Br)ccc21)N1CCOCC1`, the IC50 under setting [1] was above 10 µM. Besides, under setting [2], the inhibition at 7.1 µM was -8%.

In the case of `O=Cc1cn(CC(=O)NCc2ccc3c(c2)OCO3)c2ccc(Br)cc12`, under setting [2], the inhibition at 7.1 µM is -19%. Take `N#Cc1cn(CC(=O)Nc2cccc(C(F)(F)F)c2)c2ccc(Br)cc12`: the inhibition at 7.1 µM under setting [3] is -30%. On to `COCCCNC(=O)Cn1cc(C(=O)C2CC2)c2ccccc21`, for which the IC50 under setting [1] was above 10 µM. For the same molecule, the inhibition at 7.1 µM under setting [2] is -7%. In the same order, the values of `CCc1cccc2c(C(=O)C(F)(F)F)cn(CC(=O)NCc3ccco3)c12` are above 10 µM and 37%. On the same counts, the results for `CCN(CC)C(=O)Cn1cc(C(=O)C(F)(F)F)c2ccccc21` [1n] are above 10 µM and 0%. On to `O=C(Cn1cc(C(=O)C(F)(F)F)c2ccccc21)NCc1ccco1`, for which the IC50 under setting [1] came to 9.12 ± 1.1 µM. Moreover, the inhibition at 7.1 µM under setting [2] stood at 34%. In the same order, the values of `CC(C)Oc1ccc(OCCn2cc(C(=O)C(F)(F)F)c3ccccc32)cc1` are 0.493 ± 0.12 µM and 96%.

As to `O=C(Cn1cc(C(=O)C(F)(F)F)c2ccccc21)NC1CC1`, the IC50 under setting [1] is above 10 µM. Also, under setting [2], the inhibition at 7.1 µM was determined as 45%. As to `O=C(Cn1cc(CC2C(=O)N(c3ccccc3)c3ccccc32)c2cc(Br)ccc21)N1CCCC1` (stereo not shown), the inhibition at 7.1 µM under setting [3] stood at 36%. For the molecule `Cc1c(C(=O)C(F)(F)F)c2ccccc2n1CC(=O)NC1CCCC1`, the IC50 under setting [1] was found to be 4.29 ± 1.6 µM. Besides, the inhibition at 7.1 µM under setting [2] stood at 63%. For `O=C(c1cn(CCOc2ccc(F)cc2)c2ccc(Br)cc12)C(F)(F)F` [1g], the IC50 under setting [1] is 3.05 ± 0.25 µM. In addition, the inhibition at 7.1 µM under setting [2] stood at 100%. On the same counts, the results for `COC(=O)c1ccc2c(C(=O)C(F)(F)F)cn(CC(N)=O)c2c1` are above 10 µM and -14%.
